Active and inactive are the calls of the source. No cut-off for these calls is given here.
Assays:
[1] = target: RmtA (Emericella nidulans, UniProt Q5VLE3); test: Inhibition of Aspergillus nidulans RmtA by TRF assay
[2] = target: T1, Estrogen receptor (Homo sapiens) (UniProt P03372); test: Inhibition of estradiol-mediated ERalpha activation in MCF-7-2a cells at 150 uM; type: cell-based; set-up: scale not given: the % may be the effect or the level left
T1 sequence (whole entry): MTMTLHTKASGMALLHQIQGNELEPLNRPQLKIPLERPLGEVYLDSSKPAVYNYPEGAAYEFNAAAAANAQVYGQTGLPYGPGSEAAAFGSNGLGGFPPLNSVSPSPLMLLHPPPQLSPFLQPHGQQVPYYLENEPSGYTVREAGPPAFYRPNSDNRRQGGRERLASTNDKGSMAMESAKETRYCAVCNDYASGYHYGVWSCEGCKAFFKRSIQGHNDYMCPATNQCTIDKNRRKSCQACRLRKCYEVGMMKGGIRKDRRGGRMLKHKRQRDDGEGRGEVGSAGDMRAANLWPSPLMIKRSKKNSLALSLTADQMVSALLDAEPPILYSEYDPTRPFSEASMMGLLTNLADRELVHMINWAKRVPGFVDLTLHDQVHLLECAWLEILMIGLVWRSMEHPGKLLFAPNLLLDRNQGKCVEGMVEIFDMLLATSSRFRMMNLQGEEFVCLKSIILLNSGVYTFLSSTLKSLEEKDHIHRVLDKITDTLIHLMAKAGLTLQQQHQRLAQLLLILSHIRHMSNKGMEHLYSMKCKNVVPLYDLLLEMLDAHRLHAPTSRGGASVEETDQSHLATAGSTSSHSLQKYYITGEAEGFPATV

[3] = target: RmtA (Emericella nidulans) (UniProt Q5VLE3); test: Inhibition of Aspergillus nidulans RmtA at 10 uM by TRF assay
[4] = target: RmtA (Emericella nidulans) (UniProt Q5VLE3); test: Inhibition of Aspergillus nidulans RmtA at 2 uM by TRF assay
[5] = target: T1, Estrogen receptor (Homo sapiens); test: Inhibition of ERalpha activation in MCF-7-2a cells by reporter gene assay; type: cell-based
[6] = target: T2, Androgen receptor (Homo sapiens) (UniProt P10275); test: Inhibition of androgen receptor activation in MCF-7-2a cells by reporter gene assay; type: cell-based
T2 sequence (whole entry): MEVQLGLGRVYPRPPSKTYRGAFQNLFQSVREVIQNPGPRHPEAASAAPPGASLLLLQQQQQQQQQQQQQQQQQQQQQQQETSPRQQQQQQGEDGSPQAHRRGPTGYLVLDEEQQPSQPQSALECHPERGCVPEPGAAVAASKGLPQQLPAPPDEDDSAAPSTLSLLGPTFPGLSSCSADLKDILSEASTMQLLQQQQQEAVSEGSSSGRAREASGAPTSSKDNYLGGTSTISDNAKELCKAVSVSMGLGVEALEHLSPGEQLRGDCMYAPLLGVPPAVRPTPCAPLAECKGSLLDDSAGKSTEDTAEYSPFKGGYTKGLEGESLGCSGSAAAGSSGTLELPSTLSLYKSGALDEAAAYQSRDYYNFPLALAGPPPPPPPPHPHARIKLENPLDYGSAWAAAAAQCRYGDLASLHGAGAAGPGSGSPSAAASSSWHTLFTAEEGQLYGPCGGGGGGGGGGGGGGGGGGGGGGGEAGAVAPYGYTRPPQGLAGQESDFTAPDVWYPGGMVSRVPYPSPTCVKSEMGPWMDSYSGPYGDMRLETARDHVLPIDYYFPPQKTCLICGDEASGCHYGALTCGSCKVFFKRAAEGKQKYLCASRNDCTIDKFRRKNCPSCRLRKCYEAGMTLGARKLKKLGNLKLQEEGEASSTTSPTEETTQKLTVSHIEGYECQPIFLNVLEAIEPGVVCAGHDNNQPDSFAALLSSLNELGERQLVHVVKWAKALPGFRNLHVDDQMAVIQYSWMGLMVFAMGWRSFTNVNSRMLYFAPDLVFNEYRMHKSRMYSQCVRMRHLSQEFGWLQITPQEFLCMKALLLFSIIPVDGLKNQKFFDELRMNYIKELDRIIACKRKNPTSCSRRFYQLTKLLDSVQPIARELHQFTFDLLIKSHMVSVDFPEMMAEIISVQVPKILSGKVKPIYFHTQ

RmtA, sequence (Q5VLE3 whole entry): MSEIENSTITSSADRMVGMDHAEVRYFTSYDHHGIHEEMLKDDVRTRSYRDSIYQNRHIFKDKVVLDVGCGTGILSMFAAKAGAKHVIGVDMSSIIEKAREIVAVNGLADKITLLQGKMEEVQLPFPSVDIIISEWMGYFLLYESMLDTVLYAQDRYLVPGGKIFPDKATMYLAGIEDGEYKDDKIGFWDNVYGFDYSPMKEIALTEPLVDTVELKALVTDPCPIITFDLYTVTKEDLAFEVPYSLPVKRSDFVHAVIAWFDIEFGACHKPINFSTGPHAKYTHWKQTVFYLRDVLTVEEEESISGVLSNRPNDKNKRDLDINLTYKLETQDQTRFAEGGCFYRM
RmtA (Emericella nidulans), sequence (Q5VLE3 as listed by the source): as the sequence (Q5VLE3 whole entry) above

inhibition [3] [%] | inhibition [4] [%] | SMILES | IC50 [1] [µM] | also measured
– | – | N=C(N)c1ccc(/C=C/c2ccc(C(=N)N)cc2)cc1 [STILBAMIDINE] | 29.9 | Activity [2]: 75%
83.9 | 18.3 | N=C(N)SCc1cc(Cl)cc(Cl)c1O | – | –
68.3 | – | CC(C)(CN)SCc1ccccc1 | – | Activity [4]: inactive
75.1 | 15.6 | N=C(N)Nc1nc2cc([N+](=O)[O-])ccc2[nH]1 | – | –
64.7 | 34.9 | c1nc(NCCCc2c[nH]cn2)c2nc[nH]c2n1 | – | –
77 | 26.1 | Cc1ccc(CNc2ncnc3[nH]cnc23)cc1 | – | –
– | – | Nc1ccc(S(=O)(=O)c2ccc(NCN3C(=O)NC(=O)C(=O)C3=O)cc2)cc1 [ALLANTODAPSONE] | 8.3 | –
– | – | O=C(Nc1ccc2c(O)cc(S(=O)(=O)O)cc2c1)Nc1ccc2c(O)cc(S(=O)(=O)O)cc2c1 | 33.8 | Activity [5]: Active; Activity [6]: Active; Activity [2]: Active

From ChEMBL document CHEMBL1139857, “Target-based approach to inhibitors of histone arginine methyltransferases” (J Med Chem, 2007)
